# Publication PMC2644263 (Molecular cell, 2008)
# Target: Bub1 (Homo sapiens, UniProt O43683)
# Test: in vitro […] kinase assay with purified kinase, […] ATP, phosphoimager
# Type: biochemical
# Sequence of Bub1 (O43683 724-1085): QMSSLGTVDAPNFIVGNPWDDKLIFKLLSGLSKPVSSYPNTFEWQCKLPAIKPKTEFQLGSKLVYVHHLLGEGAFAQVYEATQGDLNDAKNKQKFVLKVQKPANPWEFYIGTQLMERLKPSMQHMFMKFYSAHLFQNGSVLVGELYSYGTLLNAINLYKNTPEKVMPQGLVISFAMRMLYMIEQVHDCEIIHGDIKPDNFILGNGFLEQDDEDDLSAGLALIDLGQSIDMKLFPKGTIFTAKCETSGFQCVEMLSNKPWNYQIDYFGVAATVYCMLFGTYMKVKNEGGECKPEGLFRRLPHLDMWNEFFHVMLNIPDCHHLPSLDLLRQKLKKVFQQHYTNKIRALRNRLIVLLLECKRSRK
smiles,measurement,value
CC(C)(C)n1nc(Cc2ccccc2O)c2c(N)ncnc21 [2OH-BNPP1],IC50,~250 nM
